Measured values: paper PMC8009478, “Novel Curcumin-Diethyl Fumarate Hybrid as a Dualistic GSK-3β Inhibitor/Nrf2 Inducer for the Treatment of Parkinson’s Disease” (ACS Chemical Neuroscience, 2020)

Assays:
SH-SY5Y cells [1] = experiment: t-BuOOH-induced intracellular ROS formation (H2DCF-DA probe); type: cell-based, human; conditions: 5 μM for 24 h, then t-BuOOH 100 μM for 30 min
Excerpt: Oxidative stress represents a remarkable pathological feature in NDDs; it is the consequence of an imbalance between the formation of reactive radical species, among others ROS, and the function of many defense antioxidant enzymes. Initially, the potential of compounds 4–7 as indirect antioxidants was investigated[31] by assessing their capability to protect from oxidative stress through prevention of ROS formation upon exposure to tert-butyl hydroperoxide (t-BuOOH). In detail, SH-SY5Y cells were first chronically treated for 24 h (the time necessary to activate the endogenous antioxidant system) with 4–7 (5 μM) and then exposed to 100 μM of t-BuOOH for 30 min; DMF (5 and 10 μM) was employed as the reference compound. Then, the intracellular ROS formation was detected by fluorescent probe 2′-7′-dichlorodihydrofluorescein diacetate (H2DCF-DA).
Figure 3 Antioxidant activity of compounds 4–7 and DMF against t-BuOOH-induced ROS formation in SH-SY5Y cells. Cells were treated with compounds 4–7 (5 μM) and DMF (5 and 10 μM) for 24 h and then with t-BuOOH (100 μM) for 30 min. At the end of treatment, the ROS formation was evaluated by probe H2DCF-DA. Results are expressed as mean ± SEM of at least three independent experiments (* p < 0.05 and ** p < 0.01 vs cells treated with t-BuOOH at one-way ANOVA with the Dunnett post hoc test).
ROS formation was evaluated by using the fluorescent probe H2DCF-DA, as previously described.[43]

SH-SY5Y cells [2] = experiment: Intracellular GSH levels (MCB probe); type: cell-based, human; conditions: 5 μM; for increase in GSH levels as compared to control: 24 h; for GSH quantity at different times: after 12 and 24 h of treatment (3–24 h studied)
Experimental: By observing the reduction of ROS levels following a long treatment of the curcumin-DEF hybrids before the treatment with t-BuOOH, we hypothesized that the antioxidant effect might likely result from an increase in levels of GSH. This endogenous antioxidant plays critical roles in protecting cells against oxidative stress damage.[32] Thus, the intracellular GSH levels were analyzed by employing the same experimental conditions used to evaluate the indirect antioxidant effect by fluorescent probe monochlorobimane (MCB). […] For the most promising compounds 4 and 5, the effect on GSH levels at different times (3–24 h) was studied.
Figure 4 Effects of compounds 4–7 and DMF on GSH levels in SH-SY5Y cells. Cells were treated with (A) compounds 4–7 (5 μM) and DMF (5 and 10 μM) for 24 h. (B) Cells were treated with compounds 4 and 5 (5 μM) for different times (3, 6, 12, and 24 h). At the end of the treatment, the GSH levels were evaluated by probe MCB. Results are expressed as mean ± SEM of at least three independent experiments (** p < 0.01 and *** p < 0.001 vs untreated cells at one-way ANOVA with the Dunnett post hoc test).
GSH levels were evaluated by using the fluorescent probe MCB, as previously described.[44]

GSK-3β = GSK-3β (Homo sapiens, UniProt P49841); experiment: Kinetic study of GSK-3β inhibition, competition with ATP (ADP-Glo Kinase Assay); type: biochemical; conditions: ATP 1 to 50 μM; inhibitors 5 and 10 μM; substrate 25 μM; double reciprocal plot
Experimental: Figure 2 Kinetic data for the curcumin-DEF hybrids 5 and 6. In the reaction mixture, the concentration of compounds employed is reported in the plot, the concentration of the substrate is constant (25 μM), and the concentration of ATP changes from 1 to 50 μM. Each point is the mean of two different experiments analyzed in triplicate.
Kinetic experiments were performed using the ADP-Glo Kinase Assay,[42] in which ATP concentration varied from 1 to 50 μM, the concentrations of inhibitors employed were 5 and 10 μM, while the concentration of GS2 was kept constant (25 μM). Graphs (Figure 2) report the double reciprocal plot of the data.

GSK-3α/β = experiment: Phosphorylation of GSK-3α/β (Ser21/9) by Western blotting; conditions: SH-SY5Y, 5 μM, after 1 h of incubation

Chain of GSK-3β (P49841 whole entry): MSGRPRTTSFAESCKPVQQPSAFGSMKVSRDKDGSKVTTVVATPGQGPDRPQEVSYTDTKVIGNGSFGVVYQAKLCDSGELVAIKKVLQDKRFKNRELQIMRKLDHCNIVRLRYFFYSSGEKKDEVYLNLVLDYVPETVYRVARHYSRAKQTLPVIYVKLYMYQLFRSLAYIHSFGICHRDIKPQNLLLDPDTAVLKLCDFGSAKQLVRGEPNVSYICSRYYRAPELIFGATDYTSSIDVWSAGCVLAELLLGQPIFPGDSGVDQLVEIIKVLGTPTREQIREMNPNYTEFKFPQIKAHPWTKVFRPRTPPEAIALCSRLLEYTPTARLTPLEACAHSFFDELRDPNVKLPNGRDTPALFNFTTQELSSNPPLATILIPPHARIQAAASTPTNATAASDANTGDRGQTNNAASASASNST

SMILES: CCOC(=O)/C=C/C(C(=O)/C=C/c1ccc(OC)cc1)=C(O)\C=C\c1ccc(OC)cc1 [Compound 4, Ethyl (2E,4Z,6E)-5-Hydroxy-7-(4-methoxyphenyl)-4-((E)-3-(4-methoxyphenyl)acryloyl)hepta-2,4,6-trienoate]
- t-BuOOH-induced intracellular ROS formation (SH-SY5Y cells [1]): significant reduction
- increase in GSH levels as compared to control (SH-SY5Y cells [2]): 4 fold
- GSH quantity at different times (SH-SY5Y cells [2]): significant increase

SMILES: CCOC(=O)/C=C/C(C(=O)/C=C/c1ccc(OC)cc1)=C(O)\C=C\c1ccc(OCc2ccccc2)cc1 [Compound 5, Ethyl (2E,4Z,6E)-7-(4-(Benzyloxy)phenyl)-5-hydroxy-4-((E)-3-(4-methoxyphenyl)acryloyl)hepta-2,4,6-trienoate]
- t-BuOOH-induced intracellular ROS formation (SH-SY5Y cells [1]): significant reduction
- mechanism of inhibition as regards competition with ATP (GSK-3β): noncompetitive inhibitors of ATP binding
- phospho-GSK-3α/β (Ser21/9) levels (GSK-3α/β): increase phospho-GSK-3α/β (Ser21/9) levels
- increase in GSH levels as compared to control (SH-SY5Y cells [2]): 4 fold
- GSH quantity at different times (SH-SY5Y cells [2]): significant increase
